Results taken from ChEMBL document CHEMBL4828754, “Salicinoyl Quinic Acids and Their Prostaglandin E2 Production Inhibitory Activities from the Fruits of Casearia grewiifolia” (J Nat Prod, 2021).
pIC50: −log10 of the molar value. Active and inactive are the calls of the source. The calls are words filed in the database; no cut-off is given here.

Key:
[1] = Inhibition of ultraviolet B-irradiation upregulated of prostaglandin E2 production in human HaCaT cells measured after 2 hrs by ELISA; assay type: functional, cell-based; settings: light or radiation study
HaCaT = assay: Inhibition of ultraviolet B-irradiation upregulated of prostaglandin E2 production in human HaCaT cells at 10 uM measured after 2 hrs by ELISA relative to control; assay type: functional, cell-based

Question: With Oc1ccc(/C=C/c2cc(O)cc(O)c2)cc1 [RESVERATROL] as the molecule, how does the pIC50 [1] read?
Answer: 4.45

Question: For OCc1ccccc1O[C@@H]1O[C@H](CO)[C@@H](O)[C@H](O)[C@H]1O, which inhibition (HaCaT) is on record?
Answer: inactive

Question: With CC(=O)Oc1ccccc1C(=O)O [ASPIRIN] as the molecule, how does the pIC50 [1] read?
Answer: 4.52

Question: With CC(=O)O[C@@H]1[C@H](OC(C)=O)C[C@@](OC(=O)/C=C/c2ccccc2)(C(=O)OCc2ccccc2O[C@@H]2O[C@H](CO)[C@@H](O)[C@H](O)[C@H]2O)C[C@H]1O[C@@H]1O[C@H](CO)[C@@H](O)[C@H](O)[C@H]1O as the molecule, how does the inhibition (HaCaT) read?
Answer: Active

Question: For CC(=O)O[C@@H]1C[C@](O)(C(=O)OCc2ccccc2O[C@@H]2O[C@H](CO)[C@@H](O)[C@H](O)[C@H]2O)C[C@@H](O)[C@H]1OC(=O)/C=C/c1ccccc1, which inhibition (HaCaT) is on record?
Answer: Active

Question: For COC(=O)[C@]1(O)C[C@@H](O)[C@@H](OC(=O)c2ccccc2)[C@H](O[C@@H]2O[C@@H](C)[C@H](O)[C@@H](O)[C@H]2O)C1, which inhibition (HaCaT) is on record?
Answer: Active

Question: With CC(=O)O[C@@H]1C[C@](O)(C(=O)OCc2ccccc2O[C@@H]2O[C@H](CO)[C@@H](O)[C@H](O)[C@H]2O)C[C@@H](OC(C)=O)[C@H]1OC(=O)/C=C/c1ccccc1 as the molecule, how does the pIC50 [1] read?
Answer: 4.69

Question: With COC(=O)[C@]1(O)C[C@@H](O)[C@@H](OC(=O)/C=C/c2ccccc2)[C@H](O)C1 as the molecule, how does the pIC50 [1] read?
Answer: 4.54
